IC50 data for 41 compounds are collected here from US8415469B2, “Compounds and methods for kinase modulation, and indications therefor” (Plexxikon Inc., priority 2005, dated 2013).

Bounds are passed on as bounds.

Holding throughout (format): biochemical
One assay has as its target T1, Fms (Homo sapiens, UniProt P07333).
T1 construct: purchased Upstate Biotechnology
The assay can be described thus: AlphaScreen kinase assay, Fms. Particulars: read-out: IC50, activity toward kinase Fms. For orientation: Alpha assays give light when donor and acceptor beads are brought close together.

Another assay addresses T2, FGFR1 (Homo sapiens, UniProt P11362, C488A/C584S).
T2 construct: P1351.pET N6 BI-PTP FGFR A458-E765-X C488A, C584S; made in house; host or cells: E. coli (PTP1B co-expressed)
Briefly: AlphaScreen kinase assay, FGFR1. The note with it: read-out: IC50, activity toward kinase FGFR.

The next assay deals with T3, Kit (Homo sapiens, UniProt P10721).
T3 construct: P1332.N6 BI PTP KIT M552-K948-X COD; His6 (N); made in house; host or cells: E. coli (PTP1B co-expressed)
Briefly: AlphaScreen kinase assay, Kit. The note with it: read-out: IC50, activity toward kinase Kit.

The target in another assay is T4, B-Raf V600E (Homo sapiens, UniProt P15056, V600E).
T4 construct: P4254. pFastBacBD-CDC37 BRAF D437-K722-X, V600E; His6 with pFastBac HT leader (TEV site) (N); made in house; host or cells: Sf9 (baculovirus; chaperone CDC37 co-expressed)
Briefly: AlphaScreen kinase assay, B-Raf V600E. The note with it: read-out: IC50, activity toward kinase B-Raf V600E.

T4 sequence (P15056 with tags, fused parts or gaps V600E): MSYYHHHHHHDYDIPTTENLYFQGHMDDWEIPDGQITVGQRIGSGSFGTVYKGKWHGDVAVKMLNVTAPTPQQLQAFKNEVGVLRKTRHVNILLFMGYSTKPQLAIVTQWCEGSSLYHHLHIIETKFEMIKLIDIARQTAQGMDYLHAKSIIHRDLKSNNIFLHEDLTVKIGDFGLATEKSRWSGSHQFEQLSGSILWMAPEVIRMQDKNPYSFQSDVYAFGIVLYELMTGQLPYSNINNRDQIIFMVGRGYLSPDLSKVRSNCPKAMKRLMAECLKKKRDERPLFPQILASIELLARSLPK
T2 sequence (P11362 458-765 C488A/C584S): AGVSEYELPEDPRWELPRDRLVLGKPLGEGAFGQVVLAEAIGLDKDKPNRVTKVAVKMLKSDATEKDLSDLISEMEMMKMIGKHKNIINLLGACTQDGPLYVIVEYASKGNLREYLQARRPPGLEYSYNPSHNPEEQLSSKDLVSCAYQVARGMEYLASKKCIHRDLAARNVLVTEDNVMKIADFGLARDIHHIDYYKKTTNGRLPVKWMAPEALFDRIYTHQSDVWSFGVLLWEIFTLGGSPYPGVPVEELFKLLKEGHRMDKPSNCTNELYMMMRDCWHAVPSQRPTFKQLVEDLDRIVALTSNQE
T3 sequence (P10721 with tags, fused parts or gaps): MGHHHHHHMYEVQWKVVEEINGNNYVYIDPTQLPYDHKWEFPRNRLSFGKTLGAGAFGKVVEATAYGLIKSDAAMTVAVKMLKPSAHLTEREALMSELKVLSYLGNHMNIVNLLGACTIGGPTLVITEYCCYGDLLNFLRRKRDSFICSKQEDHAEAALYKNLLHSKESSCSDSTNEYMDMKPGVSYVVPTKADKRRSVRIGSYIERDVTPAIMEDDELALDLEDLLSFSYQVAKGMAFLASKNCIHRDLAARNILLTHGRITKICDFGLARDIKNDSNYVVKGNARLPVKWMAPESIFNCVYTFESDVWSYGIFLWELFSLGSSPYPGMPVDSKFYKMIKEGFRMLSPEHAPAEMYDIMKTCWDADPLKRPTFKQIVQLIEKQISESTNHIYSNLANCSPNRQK
T1 sequence (P07333 20-972): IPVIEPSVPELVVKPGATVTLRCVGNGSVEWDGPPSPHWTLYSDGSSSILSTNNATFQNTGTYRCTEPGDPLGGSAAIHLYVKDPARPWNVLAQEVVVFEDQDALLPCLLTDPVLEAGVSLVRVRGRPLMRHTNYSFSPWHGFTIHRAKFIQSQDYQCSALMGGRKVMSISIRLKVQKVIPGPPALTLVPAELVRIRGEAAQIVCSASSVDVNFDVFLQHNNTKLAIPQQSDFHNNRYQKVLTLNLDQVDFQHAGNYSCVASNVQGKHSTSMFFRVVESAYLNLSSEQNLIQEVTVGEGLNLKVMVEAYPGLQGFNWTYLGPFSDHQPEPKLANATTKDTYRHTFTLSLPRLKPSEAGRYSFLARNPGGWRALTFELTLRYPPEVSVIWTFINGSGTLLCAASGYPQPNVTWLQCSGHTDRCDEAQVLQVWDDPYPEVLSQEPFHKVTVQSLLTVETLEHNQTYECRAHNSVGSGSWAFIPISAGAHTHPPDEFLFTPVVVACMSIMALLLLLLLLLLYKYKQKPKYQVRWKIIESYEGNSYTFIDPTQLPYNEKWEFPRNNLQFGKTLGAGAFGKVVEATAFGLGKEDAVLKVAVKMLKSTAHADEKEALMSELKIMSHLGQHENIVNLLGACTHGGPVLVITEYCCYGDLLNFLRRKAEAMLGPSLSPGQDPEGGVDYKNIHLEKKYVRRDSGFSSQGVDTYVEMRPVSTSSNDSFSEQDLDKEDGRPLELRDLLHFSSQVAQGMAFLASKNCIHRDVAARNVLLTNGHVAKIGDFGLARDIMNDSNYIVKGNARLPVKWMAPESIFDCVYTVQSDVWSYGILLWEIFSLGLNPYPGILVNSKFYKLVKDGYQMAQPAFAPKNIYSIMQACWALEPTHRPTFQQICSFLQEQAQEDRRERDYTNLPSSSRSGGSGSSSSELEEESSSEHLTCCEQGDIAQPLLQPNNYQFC

As to `COc1cccc(Cc2c[nH]c3ncccc23)c1` [Compound P-0239], the IC50 on Fms is at most 10 µM.

In the case of `OC(c1ccc(NCc2ccc(C(F)(F)F)cc2)nc1)c1c[nH]c2ncccc12` (centres unmarked) [Compound P-0291], the IC50 on Fms is at most 10 µM.

Turning to `Cc1ccc(Cc2c[nH]c3ncccc23)cc1` [Compound P-0346], the IC50 at FGFR1 and at Kit was at most 10 µM in each case.

For the compound `OCCOc1cccc(Cc2c[nH]c3ncccc23)c1` [Compound P-0411], the IC50 on FGFR1 and at Kit was at most 10 µM throughout.

Consider `Clc1ccc(Cc2c[nH]c3nccc(Br)c23)cn1` [Compound P-0447], for which the IC50 on FGFR1, on Kit and on B-Raf V600E was at most 10 µM throughout.

As to `CCOc1cccc(Cc2c[nH]c3ncccc23)c1` [Compound P-0459], the IC50 on FGFR1 and at Kit was at most 10 µM throughout.

Take `COc1cccc(Cc2c[nH]c3ncc(-c4ccc(Cl)s4)cc23)c1` [Compound P-0658]: the IC50 at FGFR1 and on Kit was at most 10 µM in each case.

Take `O=C(c1ccc2nsnc2c1)c1c[nH]c2ncc(-c3cccnc3)cc12` [Compound P-0905]: the IC50 on Kit and on B-Raf V600E was at most 10 µM throughout.

`CN(C)c1ccc(Cc2c[nH]c3ncccc23)cn1` [Compound P-0935]: the IC50 at FGFR1 and at Kit was at most 10 µM in each case.

As for `COc1nc(NCc2ccc(C(F)(F)F)cc2)ccc1Cc1c[nH]c2ncccc12` [Compound P-1124], the IC50 on Fms is at most 10 µM.

Turning to `COc1cccc(Cc2c[nH]c3ncc(-c4ccc(C(F)(F)F)cc4)cc23)c1F` [Compound P-1324, 3-(2-Fluoro-3-methoxy-benzyl)-5-(4-trifluoromethyl-phenyl)-1H-pyrrolo[2,3-b]pyridine], at Fms, the IC50 was at most 10 µM.

With `COc1cccc(Cc2c[nH]c3ncc(-c4cccc(C(F)(F)F)c4)cc23)c1F` [Compound P-1325, 3-(2-Fluoro-3-methoxy-benzyl)-5-(3-trifluoromethyl-phenyl)-1H-pyrrolo[2,3-b]pyridine], the IC50 on FGFR1 and on Fms was at most 10 µM throughout.

Regarding `COc1cccc(Cc2c[nH]c3ncc(-c4cccc(Cl)c4)cc23)c1F` [Compound P-1326, 5-(3-Chloro-phenyl)-3-(2-fluoro-3-methoxy-benzyl)-1H-pyrrolo[2,3-b]pyridine], the IC50 on FGFR1 and on Fms was at most 10 µM throughout.

Take `COc1cccc(Cc2c[nH]c3ncc(-c4cccc(F)c4)cc23)c1F` [Compound P-1327, 3-(2-Fluoro-3-methoxy-benzyl)-5-(3-fluoro-phenyl)-1H-pyrrolo[2,3-b]pyridine]: the IC50 at FGFR1 and at Fms was at most 10 µM in each case.

In the case of `COc1cccc(Cc2c[nH]c3ncc(-c4cccc(OC(F)(F)F)c4)cc23)c1F` [Compound P-1328, 3-(2-Fluoro-3-methoxy-benzyl)-5-(3-trifluoromethoxy-phenyl)-1H-pyrrolo[2,3-b]pyridine], the IC50 at FGFR1 and at Fms was at most 10 µM each time.

In the case of `COc1cccc(C(=O)c2c[nH]c3ncc(-c4cccc(Cl)c4)cc23)c1F` [Compound P-1332, [5-(3-Chloro-phenyl)-1H-pyrrolo[2,3-b]pyridin-3-yl]-(2-fluoro-3-methoxy-phenyl)-methanone], the IC50 on FGFR1 and on Fms was at most 10 µM in each case.

For `COc1cccc(C(=O)c2c[nH]c3ncc(-c4ccc(Cl)cc4)cc23)c1F` [Compound P-1333, [5-(4-Chloro-phenyl)-1H-pyrrolo[2,3-b]pyridin-3-yl]-(2-fluoro-3-methoxy-phenyl)-methanone], the IC50 on FGFR1 and on Fms was at most 10 µM each time.

`COc1cccc(C(=O)c2c[nH]c3ncc(-c4cc(F)cc(F)c4)cc23)c1F` [Compound P-1334, [5-(3,5-Difluoro-phenyl)-1H-pyrrolo[2,3-b]pyridin-3-yl]-(2-fluoro-3-methoxy-phenyl)-methanone]: the IC50 at FGFR1 and on Fms was at most 10 µM each time.

As to `COc1cccc(C(=O)c2c[nH]c3ncc(-c4ccc(C#N)cc4)cc23)c1F` [Compound P-1335, 4-[3-(2-Fluoro-3-methoxy-benzoyl)-1H-pyrrolo[2,3-b]pyridin-5-yl]-benzonitrile], the IC50 on FGFR1 and at Fms was at most 10 µM in each case.

For the compound `COc1cc(C(OC)c2c[nH]c3ncccc23)ccc1OCc1ccc(Cl)cc1` (centres unmarked) [Compound P-1340], the IC50 on FGFR1 and on Fms was at most 10 µM throughout.

On to `Fc1ccccc1Cc1c[nH]c2ncc(Br)cc12` [Compound P-1342], for which the IC50 on FGFR1 and at Fms was at most 10 µM each time.

Take `O=C(c1ccccc1OCc1ccccc1)c1c[nH]c2ncc(Br)cc12` [Compound P-1382]: the IC50 at FGFR1 and at Kit was at most 10 µM each time.

As for `O=C(c1cccc(C(F)(F)F)c1)c1c[nH]c2ncc(-c3ccccc3)cc12` [Compound P-1405, (5-Phenyl-1H-pyrrolo[2,3-b]pyridin-3-yl)-(3-trifluoromethyl-phenyl)-methanone], on Fms, the IC50 was at most 10 µM.

In the case of `O=C(c1cc(F)cc(C(F)(F)F)c1)c1c[nH]c2ncc(-c3ccccc3)cc12` [Compound P-1407, (3-Fluoro-5-trifluoromethyl-phenyl)-(5-phenyl-1H-pyrrolo[2,3-b]pyridin-3-yl)-methanone], the IC50 at FGFR1 and at Kit was at most 10 µM throughout.

In the case of `CC(=O)Nc1cccc(-c2cnc3[nH]cc(C(=O)c4cc(F)cc(C(F)(F)F)c4)c3c2)c1` [Compound P-1421, N-{3-[3-(3-Fluoro-5-trifluoromethyl-benzoyl)-1H-pyrrolo[2,3-b]pyridin-5-yl]-phenyl}-acetamide], the IC50 on Fms was at most 10 µM.

For `CN(c1ccc(Cl)c(Cl)c1)c1c[nH]c2ncccc12` [Compound P-1494, (3,4-Dichloro-phenyl)-methyl-(1H-pyrrolo[2,3-b]pyridin-3-yl)-amine], on Fms, the half-inhibitory concentration (IC50) is at most 10 µM.

As for `Cn1cnnc1-c1cccc(Nc2c[nH]c3ncccc23)c1` [Compound P-1504, [3-(4-Methyl-4H-[1,2,4]triazol-3-yl)-phenyl]-(1H-pyrrolo[2,3-b]pyridin-3-yl)-amine], at Fms, the IC50 was at most 10 µM.

For the compound `OC(c1cccc(OC(F)F)c1)c1c[nH]c2ncc(Br)cc12` (centres unmarked) [Compound P-1511], on Fms, the IC50 was at most 10 µM.

Regarding `FC(F)Oc1cc(Cc2c[nH]c3ncc(Br)cc23)cc(OC(F)F)c1` [Compound P-1538, 3-(3,5-Bis-difluoromethoxy-benzyl)-5-bromo-1H-pyrrolo[2,3-b]pyridine], the IC50 on FGFR1 and on Kit was at most 10 µM in each case.

Consider `OC(c1ccc2c(c1)OC(F)(F)O2)c1c[nH]c2ncc(Br)cc12` (centres unmarked) [Compound P-1550], for which the IC50 at FGFR1, at Kit and on B-Raf V600E was at most 10 µM each time.

`O=C(c1ccc2c(c1)OC(F)(F)O2)c1c[nH]c2ncc(Br)cc12` [Compound P-1551, (5-Bromo-1H-pyrrolo[2,3-b]pyridin-3-yl)-(2,2-difluoro-benzo[1,3]dioxol-5-yl)-methanone]: the IC50 at Kit is at most 10 µM.

`O=C(c1ccc2c(c1)OC(F)(F)O2)c1c[nH]c2ncc(-c3cccnc3)cc12` [Compound P-1558, (2,2-Difluoro-benzo[1,3]dioxol-5-yl)-(5-pyridin-3-yl-1H-pyrrolo[2,3-b]pyridin-3-yl)-methanone]: the IC50 on Fms and at B-Raf V600E was at most 10 µM throughout.

For `O=[N+]([O-])c1ccc(Sc2c[nH]c3ncc(Cl)cc23)nc1` [Compound P-1562], on Kit, the IC50 was at most 10 µM.

As for `O=C(c1ccc(Cl)cc1Cl)c1c[nH]c2ncc(Br)cc12` [Compound P-1565], the IC50 on Kit is at most 10 µM.

Consider `COc1ccc(Sc2c[nH]c3ncc(Cl)cc23)nc1` [Compound P-1574], for which the IC50 at Kit is at most 10 µM.

Regarding `O=C(NCC1CC1)Nc1ccc(F)c(Cc2c[nH]c3ncc(Cl)cc23)c1F` [Compound P-1652, 1-[3-(5-Chloro-1H-pyrrolo[2,3-b]pyridin-3-ylmethyl)-2,4-difluoro-phenyl]-3-cyclopropylmethyl-urea], at Fms, the IC50 is at most 10 µM.

On to `COC(c1c(F)ccc(NC(=O)Nc2ccc(F)cc2)c1F)c1c[nH]c2ncc(Cl)cc12` (centres unmarked) [Compound P-1653], for which the IC50 on Fms was at most 10 µM.

Consider `O=C(NCc1ccc(F)cc1)Nc1ccc(F)c(Cc2c[nH]c3ncc(Cl)cc23)c1F` [Compound P-1654, 1-[3-(5-Chloro-1H-pyrrolo[2,3-b]pyridin-3-ylmethyl)-2,4-difluoro-phenyl]-3-(4-fluoro-benzyl)-urea], for which the IC50 at Fms is at most 10 µM.

Turning to `O=C(Nc1ccc(F)cc1)Nc1ccc(F)c(Cc2c[nH]c3ncc(Cl)cc23)c1F` [Compound P-1657, 1-[3-(5-Chloro-1H-pyrrolo[2,3-b]pyridin-3-ylmethyl)-2,4-difluoro-phenyl]-3-(4-fluoro-phenyl)-urea], on Fms, the IC50 is at most 10 µM.

For `CCCCOc1ccc(NC(=O)Nc2cccc(C(=O)c3c[nH]c4ncc(-c5ccc(F)cc5)cc34)c2)cc1` [Compound P-1754, 1-(4-Butoxy-phenyl)-3-{3-[5-(4-fluoro-phenyl)-1H-pyrrolo[2,3-b]pyridine-3-carbonyl]-phenyl}-urea], the IC50 at Fms is at most 10 µM.

Regarding `COCCNC(=O)Nc1cccc(C(=O)c2c[nH]c3ncccc23)c1` [Compound P-1761, 1-(2-Methoxy-ethyl)-3-[3-(1H-pyrrolo[2,3-b]pyridine-3-carbonyl)-phenyl]urea], the IC50 at Fms was at most 10 µM.

The term IC50 denotes the concentration that gives 50% inhibition.
